# Measured values taken from publication PMC6222329 (Molecules : A Journal of Synthetic Chemistry and Natural …, 2018).
# Columns and labels:
# [1] = target: T1, AChE (Electrophorus electricus) (Electrophorus electricus, UniProt O42275); test: AChE inhibition, Ellman's method; assay type: biochemical
# T1 construct: purchased Sigma-Aldrich (Steinheim, Germany)
# Procedure: (§1) The assay was performed in two steps.
# (§2) All enzymes were obtained from Sigma-Aldrich (Steinheim, Germany). Ellman’s reagent and the substrates were obtained from Fluka (Buchs, Switzerland). The chemicals used to prepare the buffer solution were purchased from Merck (Darmstadt, Germany).
# (§3) The enzyme inhibitory activities of the synthesized compounds were investigated by applying Ellman’s method. Enzyme solutions were dissolved in gelatin solution (1%; 2.5 units/mL). […] Then, the reaction was initiated by the addition of Ellman’s reagent 5,5′-Dithiobis(2-nitrobenzoic acid) (DTNB; 20 µL/well, 10 mM) and the substrate (10 µL/well, 75 mM). […] The enzyme solution was processed as a control. All readings were adjusted with blank-reading. All assays were performed in four independent wells. […] Absorbance differences between the two readings were taken, and percentage inhibition rates were calculated according to the following formula: % Inhibition=[(A(C)−A(B))−(A(I)−A(B))]/(A(C)−A(B))×100.
# (§4) • Blank (B): the well in which the inhibitor compound and substrate were not added; • Control (C): the well where the inhibitor compound was not added; • A(B): the difference in absorbance reading for the blank; • A(C): the difference in absorbance reading for the control; • A(I): the difference in absorbance reading for the inhibitor compounds.
# AChE (Human) = target: T2, AChE (Human) (Homo sapiens, UniProt P22303); test: AChE inhibition, Ellman's method; assay type: biochemical
# T2 construct: purchased Sigma-Aldrich (Steinheim, Germany)
# T2 sequence (P22303 32-614): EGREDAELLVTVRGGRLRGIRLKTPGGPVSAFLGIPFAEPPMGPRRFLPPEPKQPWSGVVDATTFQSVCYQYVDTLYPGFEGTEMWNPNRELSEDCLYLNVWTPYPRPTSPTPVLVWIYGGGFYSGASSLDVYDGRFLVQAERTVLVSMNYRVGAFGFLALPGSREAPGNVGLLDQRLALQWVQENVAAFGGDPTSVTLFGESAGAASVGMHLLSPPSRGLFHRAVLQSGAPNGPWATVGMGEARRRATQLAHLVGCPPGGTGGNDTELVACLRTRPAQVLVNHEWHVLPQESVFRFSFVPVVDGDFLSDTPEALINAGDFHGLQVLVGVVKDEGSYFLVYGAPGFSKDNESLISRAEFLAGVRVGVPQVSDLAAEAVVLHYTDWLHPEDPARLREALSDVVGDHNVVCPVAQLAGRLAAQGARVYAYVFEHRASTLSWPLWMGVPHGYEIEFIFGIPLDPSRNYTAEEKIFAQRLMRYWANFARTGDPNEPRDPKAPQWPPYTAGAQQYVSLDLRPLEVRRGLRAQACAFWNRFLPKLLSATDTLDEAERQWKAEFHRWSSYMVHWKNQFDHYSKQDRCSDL
# Procedure: as §1, §2, §3, §4
# BChE (Equine) = target: T3, BChE (Equine) (Equus caballus, UniProt P81908); test: biochemical; assay type: biochemical
# T3 construct: purchased Sigma-Aldrich (Steinheim, Germany)
# T3 sequence (P81908 whole entry): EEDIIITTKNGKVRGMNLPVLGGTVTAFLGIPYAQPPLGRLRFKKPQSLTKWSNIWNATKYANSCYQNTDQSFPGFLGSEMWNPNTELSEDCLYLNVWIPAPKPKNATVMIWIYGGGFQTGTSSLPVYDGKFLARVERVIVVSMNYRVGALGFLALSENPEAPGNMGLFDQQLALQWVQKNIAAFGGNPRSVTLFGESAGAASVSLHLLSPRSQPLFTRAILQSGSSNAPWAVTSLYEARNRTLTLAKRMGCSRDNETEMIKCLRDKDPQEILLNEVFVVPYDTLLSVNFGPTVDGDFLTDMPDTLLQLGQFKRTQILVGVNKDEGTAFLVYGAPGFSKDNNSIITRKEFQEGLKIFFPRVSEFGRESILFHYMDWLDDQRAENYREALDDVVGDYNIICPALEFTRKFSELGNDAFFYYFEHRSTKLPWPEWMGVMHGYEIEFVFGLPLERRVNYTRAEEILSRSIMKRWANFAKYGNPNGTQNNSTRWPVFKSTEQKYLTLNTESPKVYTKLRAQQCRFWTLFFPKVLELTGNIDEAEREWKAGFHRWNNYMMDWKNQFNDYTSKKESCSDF
# Procedure: as §1, §2, §3, §4
# BChE (Human) = target: T4, BChE (Human) (Homo sapiens, UniProt P06276); test: BChE inhibition, Ellman's method; assay type: biochemical; details: for IC50: read-out: BChE (Human) IC50
# T4 construct: purchased Sigma-Aldrich (Steinheim, Germany)
# T4 sequence (P06276 29-602): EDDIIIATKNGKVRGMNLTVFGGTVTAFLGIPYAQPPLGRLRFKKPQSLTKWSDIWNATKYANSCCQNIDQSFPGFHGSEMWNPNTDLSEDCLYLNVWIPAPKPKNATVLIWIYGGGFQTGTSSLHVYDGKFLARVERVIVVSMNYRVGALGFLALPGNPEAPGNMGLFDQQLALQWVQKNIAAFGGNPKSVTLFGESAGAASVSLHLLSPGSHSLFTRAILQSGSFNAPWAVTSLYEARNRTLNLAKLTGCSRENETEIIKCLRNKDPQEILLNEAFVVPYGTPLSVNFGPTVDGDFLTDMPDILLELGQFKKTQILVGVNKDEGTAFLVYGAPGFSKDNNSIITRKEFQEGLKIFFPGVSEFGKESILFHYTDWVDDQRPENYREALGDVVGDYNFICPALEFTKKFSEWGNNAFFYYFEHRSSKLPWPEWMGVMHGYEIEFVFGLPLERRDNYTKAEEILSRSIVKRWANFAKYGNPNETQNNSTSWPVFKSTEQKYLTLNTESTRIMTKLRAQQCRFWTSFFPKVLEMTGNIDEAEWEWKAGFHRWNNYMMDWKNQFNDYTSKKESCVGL
# Procedure: as §1, §2, §3, §4
# [2] = test system: murine fibroblast healthy cell line (NIH3T3); test: MTT cell viability assay; assay type: cell-based; details: 24 h, 0.000316 µM to 1000 µM, read-out: IC50 against NIH3T3
# Procedure: The active compounds (4a, 4b, 4e, 4i, 4m, 4n, 4o, and 4t) were chosen to determine their cytotoxic activity toward a murine fibroblast healthy cell line (NIH3T3). After incubating the cells with active compounds at concentrations of 0.000316 µM to1000 µM for 24 h, the cell viability was measured using the 3-(4,5-dimethylthiazol-2-yl)-2,5-diphenyltetrazolium (MTT) assay. The inhibition percentage was calculated for each concentration of the test compounds. The IC50 values of the compounds were determined using a non-linear regression analysis over the calculated percentage inhibition values, and they are presented in Table 2. Accordingly, the cytotoxicity test proposed that the active derivatives were nontoxic against NIH3T3 cells at their active concentrations against BChE.
# Healthy murine embryonic fibroblast cells (NIH3T3 cell line) were used for the cytotoxicity tests. The cell line and selected compounds were prepared for an MTT assay as reported previously. The optical densities (OD) of 96 well plates were recorded at 540 nm. […]
# T1 sequence (O42275 24-633): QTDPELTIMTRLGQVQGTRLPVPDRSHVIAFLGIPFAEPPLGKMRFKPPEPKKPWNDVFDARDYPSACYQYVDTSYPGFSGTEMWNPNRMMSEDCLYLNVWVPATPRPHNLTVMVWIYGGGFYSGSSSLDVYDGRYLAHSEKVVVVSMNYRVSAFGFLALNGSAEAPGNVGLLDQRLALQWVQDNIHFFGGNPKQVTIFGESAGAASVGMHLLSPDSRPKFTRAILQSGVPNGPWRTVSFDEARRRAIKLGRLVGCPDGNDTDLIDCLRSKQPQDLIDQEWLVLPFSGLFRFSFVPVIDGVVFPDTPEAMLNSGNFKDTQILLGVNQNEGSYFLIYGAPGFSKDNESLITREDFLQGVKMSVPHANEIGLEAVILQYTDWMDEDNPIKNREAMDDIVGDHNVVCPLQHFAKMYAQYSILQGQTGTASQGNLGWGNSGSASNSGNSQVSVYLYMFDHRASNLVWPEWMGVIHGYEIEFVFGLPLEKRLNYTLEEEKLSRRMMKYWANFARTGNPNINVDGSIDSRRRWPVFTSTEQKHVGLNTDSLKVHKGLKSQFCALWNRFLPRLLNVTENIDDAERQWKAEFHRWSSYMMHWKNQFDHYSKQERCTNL
Structure (SMILES),AChE (Electrophorus electricus) inhibitory activity (%) ± SD ([1]; 10^-3 M) [%],AChE (Electrophorus electricus) inhibitory activity (%) ± SD ([1]; 10^-4 M) [%],AChE (Human) inhibitory activity (%) ± SD (AChE (Human); 10^-3 M) [%],AChE (Human) inhibitory activity (%) ± SD (AChE (Human); 10^-4 M) [%],IC50 (BChE (Equine)) [µM],BChE (Equine) inhibitory activity (%) ± SD (BChE (Equine); 10^-3 M) [%],BChE (Equine) inhibitory activity (%) ± SD (BChE (Equine); 10^-4 M),BChE (Equine) inhibitory activity (%) ± SD (BChE (Equine); 10^-5 M) [%],BChE (Equine) inhibitory activity (%) ± SD (BChE (Equine); 10^-6 M) [%],BChE (Equine) inhibitory activity (%) ± SD (BChE (Equine); 10^-7 M) [%],BChE (Equine) inhibitory activity (%) ± SD (BChE (Equine); 10^-8 M) [%],BChE (Equine) inhibitory activity (%) ± SD (BChE (Equine); 10^-9 M) [%],BChE (Human) inhibitory activity (%) ± SD (BChE (Human); 10^-3 M) [%],BChE (Human) inhibitory activity (%) ± SD (BChE (Human); 10^-4 M),BChE (Human) inhibitory activity (%) ± SD (BChE (Human); 10^-5 M) [%],BChE (Human) inhibitory activity (%) ± SD (BChE (Human); 10^-6 M) [%],BChE (Human) inhibitory activity (%) ± SD (BChE (Human); 10^-7 M) [%],BChE (Human) inhibitory activity (%) ± SD (BChE (Human); 10^-8 M) [%],BChE (Human) inhibitory activity (%) ± SD (BChE (Human); 10^-9 M) [%],IC50 (BChE (Human)) [µM],further results
"CN(C)CCN1CCN(C(=S)SCC(=O)Nc2c3ccccc3nc3ccccc23)CC1 [Compound 4a, 2-(9-Acridinylamino)-2-oxoethyl 4-(2-(dimethylamino)ethyl)piperazine-1-carbodithioate]",60.13±1.54,17.03 ± 0.48,62.20±1.05,18.15 ± 0.51,0.226 ± 0.008,99.13±3.21,* 91.13 ± 2.94%,84.80±2.76,52.10±1.04,39.90±0.81,28.24±0.54,19.69±0.99,98.50±2.46,* 93.25 ± 2.24%,86.20±1.46,55.00±1.11,36.21±0.97,30.20±0.68,15.79±0.81,0.243 ± 0.009,IC50 [2]: 26.8 µM
"CN(C)CCCN1CCN(C(=S)SCC(=O)Nc2c3ccccc3nc3ccccc23)CC1 [Compound 4b, 2-(9-Acridinylamino)-2-oxoethyl 4-(3-(dimethylamino)propyl)piperazine-1-carbodithioate]",79.95±1.78,32.41 ± 1.01,75.66±1.17,35.49 ± 1.00,0.264 ± 0.012,98.16±3.11,* 82.50 ± 2.07%,70.30 ±1.80,46.10±0.74,41.80±0.81,33.04±0.78,26.35±0.77,97.55±2.05,* 84.18 ± 2.21%,72.99 ±1.35,45.26±0.85,40.87±0.67,35.28±0.53,28.74±0.50,0.222 ± 0.01,IC50 [2]: 25.6 µM
"O=C(CSC(=S)N1CCN(CCO)CC1)Nc1c2ccccc2nc2ccccc12 [Compound 4e, 2-(9-Acridinylamino)-2-oxoethyl 4-(2-hydroxyethyl)piperazine-1-carbodithioate]",48.67±1.51,7.09 ± 0.64,50.22±1.12,10.13 ± 0.51,1.42 ± 0.068,97.00±3.16,* 95.98 ± 2.88%,57.53±1.89,29.52±1.07,24.26±0.54,18.89±0.84,10.77±0.58,98.95±2.10,* 96.57 ± 2.03%,55.00±1.20,30.62±1.28,26.54±0.74,17.89±0.53,8.72±0.30,1.37 ± 0.057,IC50 [2]: 325 µM
"O=C(CSC(=S)N1CCN(c2ccc(Cl)cc2)CC1)Nc1c2ccccc2nc2ccccc12 [Compound 4i, 2-(9-Acridinylamino)-2-oxoethyl 4-(4-chlorophenyl)piperazine-1-carbodithioate]",86.41±2.91,35.91 ± 1.57,89.20±1.25,33.85 ± 1.15,2.04 ± 0.068,99.37±3.41,* 69.51 ± 1.16%,44.32±0.79,38.72±0.82,33.65±0.45,26.52±0.80,25.73±0.70,98.22±2.14,* 72.90 ± 1.08%,42.99±1.02,35.00±0.87,30.49±0.56,21.77±0.40,20.69±0.38,2.1 ± 0.085,IC50 [2]: > 1000 µM
"O=C(CSC(=S)N1CCOCC1)Nc1c2ccccc2nc2ccccc12 [Compound 4r, 2-(9-Acridinylamino)-2-oxoethyl morpholine-4-carbodithioate]",68.20±1.69,37.33 ± 1.03,64.93±1.21,40.70 ± 1.00,,91.26±3.42,45.30 ± 1.88%,,,,,,94.18±2.62,43.29 ± 1.17%,,,,,,,
"O=C(CSC(=S)N1CCCCC1)Nc1c2ccccc2nc2ccccc12 [Compound 4s, 2-(9-Acridinylamino)-2-oxoethyl piperidine-1-carbodithioate]",44.51±0.96,32.17 ± 1.23,49.05±0.88,35.20 ± 1.12,,86.72±3.07,38.40 ± 0.74%,,,,,,84.27±2.16,34.99 ± 0.63%,,,,,,,
"CC1CCCCN1C(=S)SCC(=O)Nc1c2ccccc2nc2ccccc12 (centres unmarked) [Compound 4t, 2-(9-Acridinylamino)-2-oxoethyl 2-methylpiperidine-1-carbodithioate]",81.22±2.77,15.94 ± 0.42,85.44±1.72,14.51 ± 0.44,1.52 ± 0.072,96.06±3.61,* 55.00 ± 1.74%,49.04±0.68,41.33±0.41,35.75±0.53,30.66±0.59,28.50±0.66,97.28±3.00,* 54.26 ± 1.27%,48.19±1.08,38.35±0.88,36.47±0.60,32.40±0.57,29.77±0.41,1.61 ± 0.062,
"O=C(CSC(=S)N1CCC(Cc2ccccc2)CC1)Nc1c2ccccc2nc2ccccc12 [Compound 4u, 2-(9-Acridinylamino)-2-Oxoethyl 4-Benzylpiperidine-1-Carbodithioate]",69.30±1.28,25.88 ± 0.74,65.77±1.17,30.71 ± 0.52,,32.20±0.59,29.50 ± 0.48%,,,,,,38.33±0.87,31.21 ± 0.50%,,,,,,,
